Assay: recombinant barcode read abundance after kanamycin selection (control-corrected) (log10(CPM+1)); higher = more efficient recombination; sequences stand for … in AGTGCAGAGAAAATCGGCCAGTTTTCTCTGCCTGCAGTCCGCATGCCGT…AGATTTATGCAGCGGACTGCCTTTCTCCCAAAGTGATAAACCGGACAGTATCATGGACCGGTTTTCCCGGTAATCCGTATTTGCAAGGTTGGTTTCACT; site = the 11-nt target
How it was run: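 A promoter, a target, a barcode and the first 104 bridge RNA bases under J23119 made up each oligo. Oligos were Gibson-cloned into a vector bearing the other 73 bp and a T7-inducible recombinase, then co-electroporated into E. coli with a donor plasmid and plated in duplicate on chloramphenicol/ampicillin LB agar (control) or chloramphenicol/ampicillin/kanamycin with 0.1 mM IPTG. Recombination efficiency is the averaged, control-corrected counts per million of recombinant-junction barcodes. Reported values are log10(CPM+1).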
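Also: IS621 recombinase and bridge RNA in Escherichia coli cells.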

| Sequence | recombinant barcode read abundance (log10) |
| --- | --- |
| GAGGTCACTTGGGTTCTAACCTGTTGCTA (site GAGGTCACTTA) | 2.26 |
| GAGGTCACTTGGGTTCTAACCTGTTGCTA (site TCTCCTCCTAT) | 0.186 |
| GAGGTCCCTTGGGTTCTAACCTGTTGCGG (site CTCCCTGCTAG) | 0.2 |
| GAGGTCCCTTGGGTTCTAACCTGTTGCGG (site GAGGTCCCTCC) | 2.93 |
| GAGTACACTTGGGTTCTAACCTGTTGCGC (site AGCGCGCCTCA) | 0.0967 |
| GAGTACACTTGGGTTCTAACCTGTTGCGC (site GAGTACACTGC) | 2.53 |
| GAGTACCCTTGGGTTCTAACCTGTTGCCT (site GAGTACCCTAG) | 1.96 |
| GAGTACCCTTGGGTTCTAACCTGTTGCCT (site GCGTACCCTAG) | 0.162 |
| GAGTACCCTTGGGTTCTAACCTGTTGCCT (site GGGTACCCTAG) | 0.619 |
| GAGTACCCTTGGGTTCTAACCTGTTGCCT (site GTGTACCCTAG) | 0.0322 |
| GAGTAGACTTGGGTTCTAACCTGTTGCTT (site GAGTAGACTAA) | 1.64 |
| GAGTAGACTTGGGTTCTAACCTGTTGCTT (site GAGTAGTCTAA) | 1.22 |
| GAGTATGCTTGGGTTCTAACCTGTTGCCT (site GAGTATGCTAG) | 1.72 |
| GAGTATGCTTGGGTTCTAACCTGTTGCCT (site GATTATGCTAG) | 0.223 |
| GAGTATTCTTGGGTTCTAACCTGTTGCCT (site GAATATTCTAG) | 1.2 |
| GAGTATTCTTGGGTTCTAACCTGTTGCCT (site GACTATTCTAG) | 0.0264 |
| GAGTATTCTTGGGTTCTAACCTGTTGCCT (site GAGTATTCTAG) | 1.16 |
| GAGTATTCTTGGGTTCTAACCTGTTGCCT (site GATTATTCTAG) | 0.123 |
| GAGTCGTCTTGGGTTCTAACCTGTTGCCT (site GAGTCGCCTAG) | 0.193 |
| GAGTCGTCTTGGGTTCTAACCTGTTGCCT (site GAGTCGTCTAG) | 1.78 |
| GAGTCTACTTGGGTTCTAACCTGTTGCCA (site CCTATAGCTAA) | 0.0951 |
| GAGTCTACTTGGGTTCTAACCTGTTGCCA (site GAGTCTACTTG) | 0.317 |

| Sequence | recombinant barcode read abundance (log10) |
| --- | --- |
| GAGTCTACTTGGGTTCTAACCTGTTGCCG (site GAGTCTACTCG) | 0.562 |
| GAGTCTACTTGGGTTCTAACCTGTTGCCG (site GAGTCTACTCT) | 0.0936 |
| GAGTTAACTTGGGTTCTAACCTGTTGCCG (site GAGTTAACTCG) | 0.262 |
| GAGTTAACTTGGGTTCTAACCTGTTGCCG (site GTGTGAACTCG) | 0.0546 |
| GAGTTCCCTTGGGTTCTAACCTGTTGCGT (site GAGTTACCTAC) | 0.341 |
| GAGTTCCCTTGGGTTCTAACCTGTTGCGT (site GAGTTCCCTAC) | 2.66 |
| GAGTTCCCTTGGGTTCTAACCTGTTGCGT (site GAGTTGCCTAC) | 0.23 |
| GAGTTCCCTTGGGTTCTAACCTGTTGCGT (site GAGTTTCCTAC) | 0.0134 |
| GAGTTGCCTTGGGTTCTAACCTGTTGCGT (site GAGTTACCTAC) | 1.96 |
| GAGTTGCCTTGGGTTCTAACCTGTTGCGT (site GAGTTCCCTAC) | 0.108 |
| GAGTTGCCTTGGGTTCTAACCTGTTGCGT (site GAGTTGCCTAC) | 1.68 |
| GAGTTGCCTTGGGTTCTAACCTGTTGCGT (site GAGTTTCCTAC) | 0.0593 |
| GAGTTTCCTTGGGTTCTAACCTGTTGCAG (site GAGCGTCCTCT) | 0.118 |
| GAGTTTCCTTGGGTTCTAACCTGTTGCAG (site GAGTTTCCTCT) | 0.343 |
| GATAGAGCTTGGGTTCTAACCTGTTGCCG (site GATAGAGCTCG) | 0.772 |
| GATAGAGCTTGGGTTCTAACCTGTTGCCG (site GATATAGCTAG) | 0 |
| GATAGGCCTTGGGTTCTAACCTGTTGCTT (site AATTGGCCTAA) | 0.0314 |
| GATAGGCCTTGGGTTCTAACCTGTTGCTT (site GATAGGCCTAA) | 0.371 |
| GATAGTACTTGGGTTCTAACCTGTTGCCT (site GATAGTACTAG) | 1.48 |
| GATAGTACTTGGGTTCTAACCTGTTGCCT (site GATAGTCCTAG) | 0.0718 |
| GATAGTACTTGGGTTCTAACCTGTTGCCT (site GATAGTGCTAG) | 0.0995 |
| GATAGTACTTGGGTTCTAACCTGTTGCCT (site GATAGTTCTAG) | 0.17 |

| Sequence | recombinant barcode read abundance (log10) |
| --- | --- |
| GATAGTTCTTGGGTTCTAACCTGTTGCCT (site GATAGTACTAG) | 0.0904 |
| GATAGTTCTTGGGTTCTAACCTGTTGCCT (site GATAGTCCTAG) | 0.675 |
| GATAGTTCTTGGGTTCTAACCTGTTGCCT (site GATAGTGCTAG) | 0.132 |
| GATAGTTCTTGGGTTCTAACCTGTTGCCT (site GATAGTTCTAG) | 0.264 |
| GATCATCCTTGGGTTCTAACCTGTTGCCT (site GATCATCCTAG) | 0.364 |
| GATCATCCTTGGGTTCTAACCTGTTGCCT (site GTTCATCCTAG) | 0.0462 |
| GATCCATCTTGGGTTCTAACCTGTTGCCT (site GATCCATCTAG) | 0.561 |
| GATCCATCTTGGGTTCTAACCTGTTGCCT (site GCTCCATCTAG) | 0.251 |
| GATCCATCTTGGGTTCTAACCTGTTGCCT (site GGTCCATCTAG) | 0.209 |
| GATCCATCTTGGGTTCTAACCTGTTGCCT (site GTTCCATCTAG) | 0.142 |
| GATCCGTCTTGGGTTCTAACCTGTTGCGG (site GATCCGTCTCC) | 0.136 |
| GATCCGTCTTGGGTTCTAACCTGTTGCGG (site GGTCCGGCTCC) | 0.551 |
| GATCCTACTTGGGTTCTAACCTGTTGCCT (site GATCCTACTAG) | 1.14 |
| GATCCTACTTGGGTTCTAACCTGTTGCCT (site GCTCCTACTAG) | 0.0495 |
| GATCCTACTTGGGTTCTAACCTGTTGCCT (site GGTCCTACTAG) | 0.346 |
| GATCCTACTTGGGTTCTAACCTGTTGCCT (site GTTCCTACTAG) | 0.0681 |
| GATCGATCTTGGGTTCTAACCTGTTGCGT (site GATCGATCTAA) | 0.197 |
| GATCGATCTTGGGTTCTAACCTGTTGCGT (site GATCGATCTAC) | 1.46 |
| GATCGATCTTGGGTTCTAACCTGTTGCGT (site GATCGATCTAG) | 0.284 |
| GATCGATCTTGGGTTCTAACCTGTTGCGT (site GATCGATCTAT) | 0.265 |
| GATCTGCCTTGGGTTCTAACCTGTTGCCT (site GATCAGCCTAG) | 0.246 |
| GATCTGCCTTGGGTTCTAACCTGTTGCCT (site GATCTGCCTAG) | 0.984 |

| Sequence | recombinant barcode read abundance (log10) |
| --- | --- |
| GATGGGACTTGGGTTCTAACCTGTTGCCG (site GATAGGACTAG) | 0.0533 |
| GATGGGACTTGGGTTCTAACCTGTTGCCG (site GATGGGACTCG) | 2.19 |
| GATGTGCCTTGGGTTCTAACCTGTTGCGT (site CCGCGAGCTCG) | 0.0696 |
| GATGTGCCTTGGGTTCTAACCTGTTGCGT (site GATGTGCCTAC) | 2.57 |
| GATTATGCTTGGGTTCTAACCTGTTGCCT (site GAGTATGCTAG) | 0.259 |
| GATTATGCTTGGGTTCTAACCTGTTGCCT (site GATTATGCTAG) | 0.615 |
| GATTCTACTTGGGTTCTAACCTGTTGCTT (site GAATCTACTAA) | 0.155 |
| GATTCTACTTGGGTTCTAACCTGTTGCTT (site GACTCTACTAA) | 0.22 |
| GATTCTACTTGGGTTCTAACCTGTTGCTT (site GAGTCTACTAA) | 0.813 |
| GATTCTACTTGGGTTCTAACCTGTTGCTT (site GATTCTACTAA) | 0.0583 |
| GATTTCGCTTGGGTTCTAACCTGTTGCCT (site ATCAGTTCTCA) | 0.0643 |
| GATTTCGCTTGGGTTCTAACCTGTTGCCT (site GATTTCGCTAG) | 0.42 |
| GCAAGCTCTTGGGTTCTAACCTGTTGCTA (site GCAAGCTCTTA) | 1.3 |
| GCAAGCTCTTGGGTTCTAACCTGTTGCTA (site GCAAGGTCTTA) | 0.36 |
| GCAAGGGCTTGGGTTCTAACCTGTTGCCG (site GCAAGGGCTCG) | 1.24 |
| GCAAGGGCTTGGGTTCTAACCTGTTGCCG (site GCTAGGGCTCT) | 0.303 |
| GCAAGGTCTTGGGTTCTAACCTGTTGCAT (site CGTTCTCCTTA) | 0.18 |
| GCAAGGTCTTGGGTTCTAACCTGTTGCAT (site GCAAGGTCTAT) | 2.5 |
| GCAAGGTCTTGGGTTCTAACCTGTTGCTA (site GCAAGCTCTTA) | 0.133 |
| GCAAGGTCTTGGGTTCTAACCTGTTGCTA (site GCAAGGTCTTA) | 1.98 |
